From patent publication US20220241311A1, “METHODS AND MATERIALS FOR TREATING GLYCOSYLATION DISORDERS” (priority 2018, published 2022)

System: PGM1-defective patient fibroblasts
Test: Nucleotide sugar analysis (UPLC-PDA), patient fibroblasts
Assay type: cell-based, human
Experimental: Levels of nucleotides and sugar-nucleotides were determined. Fibroblast cell pellets (5×10^6 cells per sample) were lysed and extracted in 0.37 ml ice-cold 0.5 M perchloric acid with sonication on ice. Samples were neutralized with 86 μl ice-cold neutralization solution (2.5 M KOH in 1.5 M K2HPO4) after 5 minute sonication. To remove precipitated potassium perchlorate neutralized samples were centrifuged at 4° C. and 16,400×g for 10 minutes and filtered with 0.2 μm filters. Nucleotides and sugar-nucleotides were immediately analyzed and separated via ion-pair reverse phased chromatography using an Acquity HSS T3 column (150 mm×2.1 mm, 1.7 μm, Waters) connected to an Acquity H-class UPLC system. The column temperature was set to 40° C. and the column was equilibrated with solvent A (50 mM potassium phosphate buffer, 8 mM tetrabutylammonium hydrogensulfate, pH 6.5) at a flow rate of 0.45 ml min^−1. Autosampler temperature was maintained at 6° C. […] Nucleotides were detected by Acquity PDA detector (Waters, 260 nm) and quantified using ultrapure standards (Sigma). Data acquisition and processing was performed with the Empower3 software suite (Waters).
Nucleotide sugars were measured with serum starvation during 18 hours of culturing and without of serum starvation and applying normal media.

[1] = Patient 8, 1 d + 0.75 mM Galactose
[2] = Patient 8, 4 d + 0.75 mM Galactose
[3] = listed as 'i e' (patient cell-line 2013Y), 1 d 2 mM Galactose
[4] = listed as 'i e' (patient cell-line 2013Y), 1 d + 0.75 mM Galactose
[5] = listed as 'i e' (patient cell-line 2013Y), 4 d 2 mM Galactose
[6] = listed as 'i e' (patient cell-line 2013Y), 4 d + 0.75 mM Galactose
[7] = patient 1, 1 d + 0.75 mM Galactose
[8] = patient 1, 4 d + 0.75 mM Galactose
[9] = patient 2, 1 d + 0.75 mM Galactose
[10] = patient 2, 4 d + 0.75 mM Galactose

O=C[C@H](O)[C@@H](O)[C@@H](O)[C@H](O)CO [D-gal, D-galactose]
ADP (Patient 8, 1 d 2 mM Galactose): 510.69 pmol/mio cells
AMP (Patient 8, 1 d 2 mM Galactose): 15.28 pmol/mio cells
ATP (Patient 8, 1 d 2 mM Galactose): 2089.09 pmol/mio cells
CTP (Patient 8, 1 d 2 mM Galactose): 274.92 pmol/mio cells
GDP (Patient 8, 1 d 2 mM Galactose): 213.67 pmol/mio cells
GDP-Man (Patient 8, 1 d 2 mM Galactose): 29.66 pmol/mio cells
GTP (Patient 8, 1 d 2 mM Galactose): 434.86 pmol/mio cells
UDP (Patient 8, 1 d 2 mM Galactose): 153.67 pmol/mio cells
UDP-Gal (Patient 8, 1 d 2 mM Galactose): 398.68 pmol/mio cells
UDP-Glc (Patient 8, 1 d 2 mM Galactose): 613.75 pmol/mio cells
UDP-GlcNAc (Patient 8, 1 d 2 mM Galactose): 31.04 pmol/mio cells
UTP (Patient 8, 1 d 2 mM Galactose): 1183.32 pmol/mio cells
cAMP (Patient 8, 1 d 2 mM Galactose): 75.29 pmol/mio cells
ADP [1]: 429.27 pmol/mio cells
AMP [1]: 7.31 pmol/mio cells
ATP [1]: 1855.71 pmol/mio cells
CTP [1]: 222.68 pmol/mio cells
GDP [1]: 188.04 pmol/mio cells
GDP-Man [1]: 31.71 pmol/mio cells
GTP [1]: 387.39 pmol/mio cells
UDP [1]: 120.53 pmol/mio cells
UDP-Gal [1]: 273.66 pmol/mio cells
UDP-Glc [1]: 445.76 pmol/mio cells
UDP-GlcNAc [1]: 40.27 pmol/mio cells
UTP [1]: 1037.93 pmol/mio cells
cAMP [1]: 72.84 pmol/mio cells
ADP (Patient 8, 4 d 2 mM Galactose): 695.56 pmol/mio cells
AMP (Patient 8, 4 d 2 mM Galactose): 22.78 pmol/mio cells
ATP (Patient 8, 4 d 2 mM Galactose): 3192.45 pmol/mio cells
CTP (Patient 8, 4 d 2 mM Galactose): 282.74 pmol/mio cells
GDP (Patient 8, 4 d 2 mM Galactose): 260.45 pmol/mio cells
GDP-Man (Patient 8, 4 d 2 mM Galactose): 95.43 pmol/mio cells
GTP (Patient 8, 4 d 2 mM Galactose): 659.21 pmol/mio cells
UDP (Patient 8, 4 d 2 mM Galactose): 169.63 pmol/mio cells
UDP-Gal (Patient 8, 4 d 2 mM Galactose): 315.21 pmol/mio cells
UDP-Glc (Patient 8, 4 d 2 mM Galactose): 493.54 pmol/mio cells
UDP-GlcNAc (Patient 8, 4 d 2 mM Galactose): 56.13 pmol/mio cells
UTP (Patient 8, 4 d 2 mM Galactose): 1293.27 pmol/mio cells
cAMP (Patient 8, 4 d 2 mM Galactose): 88.40 pmol/mio cells
ADP [2]: 655.53 pmol/mio cells
AMP [2]: 18.87 pmol/mio cells
ATP [2]: 3363.84 pmol/mio cells
CTP [2]: 274.92 pmol/mio cells
GDP [2]: 277.54 pmol/mio cells
GDP-Man [2]: 101.37 pmol/mio cells
GTP [2]: 682.40 pmol/mio cells
UDP [2]: 174.89 pmol/mio cells
UDP-Gal [2]: 283.69 pmol/mio cells
UDP-Glc [2]: 442.43 pmol/mio cells
UDP-GlcNAc [2]: 6.33 pmol/mio cells
UTP [2]: 1364.91 pmol/mio cells
cAMP [2]: 74.47 pmol/mio cells
UDP-Glc and UDP-Gal levels (all patient cell lines, 4 days of D-gal supplementation): remained significantly increased
ADP [3]: 318.92 pmol/mio cells
AMP [3]: 2.63 pmol/mio cells
ATP [3]: 2918.66 pmol/mio cells
CTP [3]: 295.58 pmol/mio cells
GDP [3]: 186.06 pmol/mio cells
GDP-Man [3]: 56.30 pmol/mio cells
GTP [3]: 566.56 pmol/mio cells
UDP [3]: 42.70 pmol/mio cells
UDP-Gal [3]: 503.56 pmol/mio cells
UDP-Glc [3]: 637.55 pmol/mio cells
UDP-GlcNAc [3]: 211.57 pmol/mio cells
UTP [3]: 981.09 pmol/mio cells
cAMP [3]: 70.73 pmol/mio cells
ADP [4]: 407.13 pmol/mio cells
AMP [4]: 8.23 pmol/mio cells
ATP [4]: 3422.01 pmol/mio cells
CTP [4]: 339.16 pmol/mio cells
GDP [4]: 187.52 pmol/mio cells
GDP-Man [4]: 107.59 pmol/mio cells
GTP [4]: 681.74 pmol/mio cells
UDP [4]: 115.84 pmol/mio cells
UDP-Gal [4]: 431.17 pmol/mio cells
UDP-Glc [4]: 703.36 pmol/mio cells
UDP-GlcNAc [4]: 21.89 pmol/mio cells
UTP [4]: 1494.83 pmol/mio cells
cAMP [4]: 91.16 pmol/mio cells
ADP [5]: 382.44 pmol/mio cells
AMP [5]: 16.17 pmol/mio cells
ATP [5]: 3460.76 pmol/mio cells
CTP [5]: 241.06 pmol/mio cells
GDP [5]: 242.68 pmol/mio cells
GDP-Man [5]: 147.29 pmol/mio cells
GTP [5]: 681.71 pmol/mio cells
UDP [5]: 43.26 pmol/mio cells
UDP-Gal [5]: 394.31 pmol/mio cells
UDP-Glc [5]: 616.89 pmol/mio cells
UTP [5]: 1316.26 pmol/mio cells
cAMP [5]: 98.61 pmol/mio cells
ADP [6]: 349.53 pmol/mio cells
AMP [6]: 3.85 pmol/mio cells
ATP [6]: 3484.52 pmol/mio cells
CTP [6]: 280.34 pmol/mio cells
GDP [6]: 225.14 pmol/mio cells
GDP-Man [6]: 151.18 pmol/mio cells
GTP [6]: 686.35 pmol/mio cells
UDP [6]: 39.53 pmol/mio cells
UDP-Gal [6]: 290.54 pmol/mio cells
UDP-Glc [6]: 487.94 pmol/mio cells
UDP-GlcNAc [6]: 354.84 pmol/mio cells
UTP [6]: 944.20 pmol/mio cells
cAMP [6]: 68.63 pmol/mio cells
ADP (patient 1, 1 d 2 mM Galactose): 580.50 pmol/mio cells
ATP (patient 1, 1 d 2 mM Galactose): 2719.61 pmol/mio cells
CTP (patient 1, 1 d 2 mM Galactose): 342.25 pmol/mio cells
GDP (patient 1, 1 d 2 mM Galactose): 293.65 pmol/mio cells
GDP-Man (patient 1, 1 d 2 mM Galactose): 107.17 pmol/mio cells
GTP (patient 1, 1 d 2 mM Galactose): 542.24 pmol/mio cells
UDP (patient 1, 1 d 2 mM Galactose): 129.40 pmol/mio cells
UDP-Gal (patient 1, 1 d 2 mM Galactose): 453.09 pmol/mio cells
UDP-Glc (patient 1, 1 d 2 mM Galactose): 650.22 pmol/mio cells
UDP-GlcNAc (patient 1, 1 d 2 mM Galactose): 102.26 pmol/mio cells
UTP (patient 1, 1 d 2 mM Galactose): 1449.38 pmol/mio cells
cAMP (patient 1, 1 d 2 mM Galactose): 74.49 pmol/mio cells
ADP [7]: 584.35 pmol/mio cells
AMP [7]: 23.07 pmol/mio cells
ATP [7]: 2943.38 pmol/mio cells
CTP [7]: 366.00 pmol/mio cells
GDP [7]: 246.90 pmol/mio cells
GDP-Man [7]: 155.03 pmol/mio cells
GTP [7]: 588.22 pmol/mio cells
UDP [7]: 134.67 pmol/mio cells
UDP-Gal [7]: 386.15 pmol/mio cells
UDP-Glc [7]: 604.90 pmol/mio cells
UDP-GlcNAc [7]: 121.57 pmol/mio cells
UTP [7]: 1510.19 pmol/mio cells
cAMP [7]: 71.81 pmol/mio cells
ADP (patient 1, 4 d 2 mM Galactose): 772.84 pmol/mio cells
AMP (patient 1, 4 d 2 mM Galactose): 22.72 pmol/mio cells
ATP (patient 1, 4 d 2 mM Galactose): 3861.23 pmol/mio cells
CTP (patient 1, 4 d 2 mM Galactose): 370.91 pmol/mio cells
GDP (patient 1, 4 d 2 mM Galactose): 387.40 pmol/mio cells
GDP-Man (patient 1, 4 d 2 mM Galactose): 170.10 pmol/mio cells
GTP (patient 1, 4 d 2 mM Galactose): 763.70 pmol/mio cells
UDP (patient 1, 4 d 2 mM Galactose): 215.93 pmol/mio cells
UDP-Gal (patient 1, 4 d 2 mM Galactose): 398.07 pmol/mio cells
UDP-Glc (patient 1, 4 d 2 mM Galactose): 620.64 pmol/mio cells
UDP-GlcNAc (patient 1, 4 d 2 mM Galactose): 12.26 pmol/mio cells
UTP (patient 1, 4 d 2 mM Galactose): 1569.45 pmol/mio cells
cAMP (patient 1, 4 d 2 mM Galactose): 71.92 pmol/mio cells
ADP [8]: 789.98 pmol/mio cells
AMP [8]: 34.87 pmol/mio cells
ATP [8]: 3796.06 pmol/mio cells
CTP [8]: 342.60 pmol/mio cells
GDP [8]: 422.05 pmol/mio cells
GDP-Man [8]: 217.57 pmol/mio cells
GTP [8]: 749.54 pmol/mio cells
UDP [8]: 208.17 pmol/mio cells
UDP-Gal [8]: 331.94 pmol/mio cells
UDP-Glc [8]: 475.08 pmol/mio cells
UDP-GlcNAc [8]: 38.85 pmol/mio cells
UTP [8]: 1526.34 pmol/mio cells
cAMP [8]: 73.68 pmol/mio cells
ADP (patient 2, 1 d 2 mM Galactose): 610.98 pmol/mio cells
AMP (patient 2, 1 d 2 mM Galactose): 18.34 pmol/mio cells
ATP (patient 2, 1 d 2 mM Galactose): 5088.22 pmol/mio cells
CTP (patient 2, 1 d 2 mM Galactose): 419.20 pmol/mio cells
GDP (patient 2, 1 d 2 mM Galactose): 301.50 pmol/mio cells
GDP-Man (patient 2, 1 d 2 mM Galactose): 194.09 pmol/mio cells
GTP (patient 2, 1 d 2 mM Galactose): 982.69 pmol/mio cells
UDP (patient 2, 1 d 2 mM Galactose): 166.53 pmol/mio cells
UDP-Gal (patient 2, 1 d 2 mM Galactose): 527.44 pmol/mio cells
UDP-Glc (patient 2, 1 d 2 mM Galactose): 871.97 pmol/mio cells
UDP-GlcNAc (patient 2, 1 d 2 mM Galactose): 5.21 pmol/mio cells
UTP (patient 2, 1 d 2 mM Galactose): 2093.30 pmol/mio cells
cAMP (patient 2, 1 d 2 mM Galactose): 81.52 pmol/mio cells
ADP [9]: 754.10 pmol/mio cells
AMP [9]: 16.43 pmol/mio cells
ATP [9]: 5766.25 pmol/mio cells
CTP [9]: 448.80 pmol/mio cells
GDP [9]: 356.25 pmol/mio cells
GDP-Man [9]: 236.64 pmol/mio cells
GTP [9]: 1110.15 pmol/mio cells
UDP [9]: 219.47 pmol/mio cells
UDP-Gal [9]: 478.66 pmol/mio cells
UDP-Glc [9]: 821.98 pmol/mio cells
UDP-GlcNAc [9]: 36.15 pmol/mio cells
UTP [9]: 2422.95 pmol/mio cells
cAMP [9]: 77.51 pmol/mio cells
ADP (patient 2, 4 d 2 mM Galactose): 849.99 pmol/mio cells
AMP (patient 2, 4 d 2 mM Galactose): 20.40 pmol/mio cells
ATP (patient 2, 4 d 2 mM Galactose): 6520.85 pmol/mio cells
CTP (patient 2, 4 d 2 mM Galactose): 430.21 pmol/mio cells
GDP (patient 2, 4 d 2 mM Galactose): 356.50 pmol/mio cells
GDP-Man (patient 2, 4 d 2 mM Galactose): 340.74 pmol/mio cells
GTP (patient 2, 4 d 2 mM Galactose): 1241.95 pmol/mio cells
UDP (patient 2, 4 d 2 mM Galactose): 249.58 pmol/mio cells
UDP-Gal (patient 2, 4 d 2 mM Galactose): 455.92 pmol/mio cells
UDP-Glc (patient 2, 4 d 2 mM Galactose): 665.41 pmol/mio cells
UDP-GlcNAc (patient 2, 4 d 2 mM Galactose): 2.63 pmol/mio cells
UTP (patient 2, 4 d 2 mM Galactose): 2810.26 pmol/mio cells
cAMP (patient 2, 4 d 2 mM Galactose): 70.40 pmol/mio cells
ADP [10]: 834.56 pmol/mio cells
AMP [10]: 21.45 pmol/mio cells
ATP [10]: 6841.61 pmol/mio cells
CTP [10]: 425.54 pmol/mio cells
GDP [10]: 394.32 pmol/mio cells
GDP-Man [10]: 203.23 pmol/mio cells
GTP [10]: 1263.21 pmol/mio cells
UDP [10]: 262.74 pmol/mio cells
UDP-Gal [10]: 390.10 pmol/mio cells
UDP-Glc [10]: 611.51 pmol/mio cells
UDP-GlcNAc [10]: 4.53 pmol/mio cells
UTP [10]: 2976.41 pmol/mio cells
cAMP [10]: 72.52 pmol/mio cells
Nucleotide sugar ratio UDP-Glc/UDP-Gal, mean (patient cell lines on D-gal (1.63 without)): 1.56
